T1: Mucosa-associated lymphoid tissue lymphoma translocation protein 1 (Homo sapiens, UniProt Q9UDY8)
T1 sequence (Q9UDY8 whole entry): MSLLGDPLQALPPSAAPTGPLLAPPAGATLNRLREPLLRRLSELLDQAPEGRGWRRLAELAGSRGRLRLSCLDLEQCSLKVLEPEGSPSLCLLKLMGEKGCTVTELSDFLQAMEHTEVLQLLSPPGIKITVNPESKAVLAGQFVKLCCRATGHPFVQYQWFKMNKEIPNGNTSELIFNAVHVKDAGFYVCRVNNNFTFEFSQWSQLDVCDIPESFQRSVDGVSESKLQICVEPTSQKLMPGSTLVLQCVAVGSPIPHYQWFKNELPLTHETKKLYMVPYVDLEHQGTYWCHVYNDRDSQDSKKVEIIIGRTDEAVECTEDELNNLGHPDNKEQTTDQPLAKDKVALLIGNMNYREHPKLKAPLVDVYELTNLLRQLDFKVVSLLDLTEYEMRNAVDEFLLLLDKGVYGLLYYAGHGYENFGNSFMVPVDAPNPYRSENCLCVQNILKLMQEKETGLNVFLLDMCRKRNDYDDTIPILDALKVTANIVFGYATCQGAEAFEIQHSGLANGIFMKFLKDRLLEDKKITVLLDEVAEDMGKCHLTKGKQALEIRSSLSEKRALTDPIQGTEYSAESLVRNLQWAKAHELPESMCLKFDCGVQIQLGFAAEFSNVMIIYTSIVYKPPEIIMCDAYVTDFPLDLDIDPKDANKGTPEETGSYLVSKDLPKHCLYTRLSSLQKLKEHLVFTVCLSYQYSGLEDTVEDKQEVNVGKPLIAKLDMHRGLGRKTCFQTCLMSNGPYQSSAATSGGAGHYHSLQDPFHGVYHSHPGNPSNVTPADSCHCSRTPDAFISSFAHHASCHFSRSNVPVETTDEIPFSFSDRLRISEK

T2: Mucosa-associated lymphoid tissue lymphoma translocation protein 1 (Homo sapiens) (UniProt Q9UDY8)
T2 sequence (whole entry): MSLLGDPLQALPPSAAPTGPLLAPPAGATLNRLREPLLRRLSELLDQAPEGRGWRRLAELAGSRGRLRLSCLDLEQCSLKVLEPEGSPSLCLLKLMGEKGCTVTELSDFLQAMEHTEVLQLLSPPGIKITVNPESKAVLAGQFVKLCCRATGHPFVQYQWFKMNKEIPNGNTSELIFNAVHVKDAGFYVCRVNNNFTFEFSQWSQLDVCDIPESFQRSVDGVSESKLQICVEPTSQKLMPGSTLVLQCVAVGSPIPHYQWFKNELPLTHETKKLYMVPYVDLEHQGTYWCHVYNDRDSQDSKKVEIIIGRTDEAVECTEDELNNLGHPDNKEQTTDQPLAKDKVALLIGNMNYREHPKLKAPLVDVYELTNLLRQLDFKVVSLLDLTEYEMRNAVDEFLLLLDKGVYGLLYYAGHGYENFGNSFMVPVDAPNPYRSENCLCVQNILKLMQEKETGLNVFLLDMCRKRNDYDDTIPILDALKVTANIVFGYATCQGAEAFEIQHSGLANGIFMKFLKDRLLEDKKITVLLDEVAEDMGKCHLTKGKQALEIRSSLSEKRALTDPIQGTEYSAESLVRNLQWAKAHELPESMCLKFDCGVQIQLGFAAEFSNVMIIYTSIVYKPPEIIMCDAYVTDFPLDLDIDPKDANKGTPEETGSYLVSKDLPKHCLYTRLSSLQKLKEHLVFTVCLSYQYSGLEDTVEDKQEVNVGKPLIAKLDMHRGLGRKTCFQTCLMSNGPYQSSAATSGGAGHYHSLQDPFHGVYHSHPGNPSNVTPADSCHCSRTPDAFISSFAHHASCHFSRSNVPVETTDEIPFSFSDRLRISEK


How the values were obtained:
[1] = target: T1, Mucosa-associated lymphoid tissue lymphoma translocation protein 1; assay: Inhibition of MALT1 (unknown origin)
[2] = target: T2, Mucosa-associated lymphoid tissue lymphoma translocation protein 1 (Homo sapiens); assay: Inhibition of MALT1 (unknown origin) at 25 uM relative to control
[3] = target: Nuclear factor NF-kappa-B complex (Homo sapiens, UniProt P19838+Q00653+Q04206); assay: Inhibition of NF-kappaB (unknown origin); format: protein-complex assay
Chain of Nuclear factor NF-kappa-B complex (P19838 1-433 limits assumed): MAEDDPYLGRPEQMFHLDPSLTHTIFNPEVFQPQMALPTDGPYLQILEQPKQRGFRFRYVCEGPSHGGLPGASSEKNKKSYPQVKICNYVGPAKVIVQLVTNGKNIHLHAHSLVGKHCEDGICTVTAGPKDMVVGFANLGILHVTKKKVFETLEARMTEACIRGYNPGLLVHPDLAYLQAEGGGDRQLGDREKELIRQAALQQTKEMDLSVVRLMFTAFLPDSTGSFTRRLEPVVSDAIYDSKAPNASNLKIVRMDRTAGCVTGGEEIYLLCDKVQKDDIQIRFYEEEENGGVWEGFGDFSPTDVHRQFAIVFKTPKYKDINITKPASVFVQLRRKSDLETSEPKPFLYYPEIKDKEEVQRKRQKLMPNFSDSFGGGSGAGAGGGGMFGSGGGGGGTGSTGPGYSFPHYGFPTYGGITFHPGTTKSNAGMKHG
Chain of Nuclear factor NF-kappa-B complex (Q00653 1-454 limits assumed): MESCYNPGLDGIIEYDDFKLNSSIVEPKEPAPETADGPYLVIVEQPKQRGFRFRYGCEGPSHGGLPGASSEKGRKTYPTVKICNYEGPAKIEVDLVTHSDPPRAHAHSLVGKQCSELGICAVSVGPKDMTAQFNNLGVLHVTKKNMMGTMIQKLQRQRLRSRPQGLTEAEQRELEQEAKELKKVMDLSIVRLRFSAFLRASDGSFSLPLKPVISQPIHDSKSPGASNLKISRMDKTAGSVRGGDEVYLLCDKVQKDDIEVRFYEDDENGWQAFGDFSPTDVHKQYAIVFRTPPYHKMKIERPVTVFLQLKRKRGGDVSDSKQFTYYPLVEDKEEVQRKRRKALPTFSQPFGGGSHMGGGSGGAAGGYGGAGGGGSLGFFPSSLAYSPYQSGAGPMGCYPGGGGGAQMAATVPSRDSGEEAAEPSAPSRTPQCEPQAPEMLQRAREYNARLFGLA
Chain of Nuclear factor NF-kappa-B complex (Q04206 whole entry): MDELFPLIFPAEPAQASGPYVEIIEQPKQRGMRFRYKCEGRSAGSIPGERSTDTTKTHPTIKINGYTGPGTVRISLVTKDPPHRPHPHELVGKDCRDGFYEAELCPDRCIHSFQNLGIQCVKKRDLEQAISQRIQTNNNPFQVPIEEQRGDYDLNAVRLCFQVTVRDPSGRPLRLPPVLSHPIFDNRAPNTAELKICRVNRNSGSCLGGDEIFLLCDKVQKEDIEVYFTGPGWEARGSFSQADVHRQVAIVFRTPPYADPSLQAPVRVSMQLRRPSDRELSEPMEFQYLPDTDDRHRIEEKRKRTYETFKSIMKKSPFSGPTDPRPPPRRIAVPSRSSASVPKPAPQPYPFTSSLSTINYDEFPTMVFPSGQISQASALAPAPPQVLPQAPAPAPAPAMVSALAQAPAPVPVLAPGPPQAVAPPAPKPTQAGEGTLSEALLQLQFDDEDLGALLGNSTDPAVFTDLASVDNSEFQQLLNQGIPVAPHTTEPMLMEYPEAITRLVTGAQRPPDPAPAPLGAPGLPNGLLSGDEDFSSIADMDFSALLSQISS

[4] = substrate: CN(C)CCNC(=O)c1cc(-c2ccc(Cl)cc2)n(-c2ccc(Cl)cc2)n1; conditions: Homo sapiens; dose 0.5 µM
Description: Non-competitive inhibition of MALT1 (unknown origin) assessed as Michaelis-constant at 0.5 uM by Michaelis-Menten analysis (Rvb = 246.9 microM)

IC50 [1] | inhibition [2] | IC50 [3] | Molecule | Km [4]
> 25 µM | 46% |  | CNC(=O)c1cc(-c2ccc(Cl)cc2)n(-c2ccccc2Cl)n1 | 
19.8 µM | 59% |  | CNC(=O)c1cc(-c2ccc(Cl)cc2)n(-c2ccccc2)n1 | 
16.3 µM | 57% |  | CNC(=O)c1cc(-c2ccc(Cl)cc2)n(Cc2ccccc2)n1 | 
> 25 µM | 23% |  | CNC(=O)c1cc(-c2ccccc2Cl)n(-c2ccc(Cl)cc2)n1 | 
> 25 µM | 19% |  | CNC(=O)c1cc(-c2ccc(CO)cc2)n(-c2ccc(Cl)cc2)n1 | 
> 25 µM | 31% |  | CNC(=O)c1cc(-c2ccc(C#N)cc2)n(-c2ccc(Cl)cc2)n1 | 
> 25 µM | 47% |  | CNC(=O)c1cc(-c2ccc(F)cc2)n(-c2ccc(Cl)cc2)n1 | 
 | 57% |  | CNC(=O)c1cc(-c2ccc(Cl)cc2)n(-c2cccc(Cl)c2)n1 | 
6.55 µM | 80% |  | CNC(=O)c1cc(-c2ccc(OC)cc2)n(-c2ccc(Cl)cc2)n1 | 
> 25 µM | 43% |  | CNC(=O)c1cc(-c2cccc(Cl)c2)n(-c2ccc(Cl)cc2)n1 | 
> 25 µM | 47% |  | CNC(=O)c1cc(-c2ccc(C(F)(F)F)cc2)n(-c2ccc(Cl)cc2)n1 | 
> 25 µM | 5.7% |  | CNC(=O)c1cc(-c2ccc(S(C)(=O)=O)cc2)n(-c2ccc(Cl)cc2)n1 | 
7.01 µM | 72% | 9.34 µM | CNC(=O)c1cc(-c2ccc(Cl)cc2)n(-c2ccc(Cl)cc2)n1 | 
16.8 µM | 61% |  | CNC(=O)c1cc(-c2ccccc2)n(-c2ccc(Cl)cc2)n1 | 

The remaining lines, values behind:

Molecule | IC50 [1] | inhibition [2] | IC50 [3] | Km [4]
O=C(NCC1COCCN1)c1cc(-c2ccc(Cl)cc2)n(-c2ccc(Cl)cc2)n1 (stereo unspecified) | 0.819 µM |  |  | 
O=C(NCC1CCCCC1)c1cc(-c2ccc(Cl)cc2)n(-c2ccc(Cl)cc2)n1 | > 25 µM |  |  | 
CN(C)C(=O)c1cc(-c2ccc(Cl)cc2)n(-c2ccc(Cl)cc2)n1 | 21.2 µM |  |  | 
O=C(NCCO)c1cc(-c2ccc(Cl)cc2)n(-c2ccc(Cl)cc2)n1 | 6.55 µM |  |  | 
CSc1ccc2c(c1)N(CCC1CCCCN1C)c1ccccc1S2 (stereo unspecified) [THIORIDAZINE] | 3.43 µM |  |  | 
CN(C)CCCCNC(=O)c1cc(-c2ccc(Cl)cc2)n(-c2ccc(Cl)cc2)n1 | 2.22 µM |  |  | 
NCCNC(=O)c1cc(-c2ccc(Cl)cc2)n(-c2ccc(Cl)cc2)n1 | 1.98 µM |  |  | 
CN(C)CCCNC(=O)c1cc(-c2ccc(Cl)cc2)n(-c2ccc(Cl)cc2)n1 | 2.63 µM |  |  | 
CNC(=O)c1cc(-c2ccoc2)n(-c2ccc(Cl)cc2)n1 | > 25 µM | 16% |  | 
NC(=O)CCNC(=O)c1cc(-c2ccc(Cl)cc2)n(-c2ccc(Cl)cc2)n1 | 13.4 µM |  |  | 
O=C(NCCc1ccccc1)c1cc(-c2ccc(Cl)cc2)n(-c2ccc(Cl)cc2)n1 | > 25 µM |  |  | 
NCCCNC(=O)c1cc(-c2ccc(Cl)cc2)n(-c2ccc(Cl)cc2)n1 | 7.39 µM |  |  | 
CCN1CCC[C@@H]1CNC(=O)c1cc(-c2ccc(Cl)cc2)n(-c2ccc(Cl)cc2)n1 | 2.1 µM |  |  | 
CN(C)C1CCN(C(=O)c2cc(-c3ccc(Cl)cc3)n(-c3ccc(Cl)cc3)n2)C1 (stereo unspecified) | 10.6 µM |  |  | 
CN1CCC(O)CC1CNC(=O)c1cc(-c2ccc(Cl)cc2)n(-c2ccc(Cl)cc2)n1 (stereo unspecified) | 0.993 µM |  |  | 
CC(=O)NCCNC(=O)c1cc(-c2ccc(Cl)cc2)n(-c2ccc(Cl)cc2)n1 | 3.3 µM |  |  | 

Molecule | IC50 [1] | inhibition [2] | IC50 [3] | Km [4]
CS(=O)(=O)NCCNC(=O)c1cc(-c2ccc(Cl)cc2)n(-c2ccc(Cl)cc2)n1 | 4.37 µM |  |  | 
CNC(=O)c1cc(-c2ccsc2)n(-c2ccc(Cl)cc2)n1 | > 25 µM | 26% |  | 
O=C(c1cc(-c2ccc(Cl)cc2)n(-c2ccc(Cl)cc2)n1)N1CCCC1 | > 25 µM |  |  | 
CNC(=O)c1cc(-c2ccc(OC(F)(F)F)cc2)n(-c2ccc(Cl)cc2)n1 | > 25 µM | 38% |  | 
CNCCNC(=O)c1cc(-c2ccc(Cl)cc2)n(-c2ccc(Cl)cc2)n1 | 0.8 µM |  |  | 
CNC(=O)c1cc(-c2ccc(Cl)cc2)n(C)n1 | > 25 µM | 7.7% |  | 
CNC(=O)c1cc(-c2ccco2)n(-c2ccc(Cl)cc2)n1 | > 25 µM | 20% |  | 
CN1CCCCC1CNC(=O)c1cc(-c2ccc(Cl)cc2)n(-c2ccc(Cl)cc2)n1 (stereo unspecified) | 0.521 µM |  |  | 
CN1CCOC[C@H]1CNC(=O)c1cc(-c2ccc(Cl)cc2)n(-c2ccc(Cl)cc2)n1 | 2.01 µM |  |  | 
CNC(=O)c1cc(-c2ccc(Cl)cc2)n(C2CCCCC2)n1 |  | 63% |  | 
CNC(=O)c1cc(-c2ccc(OC)nc2)n(-c2ccc(Cl)cc2)n1 | > 25 µM | 21% |  | 
CN1CCCC(NC(=O)c2cc(-c3ccc(Cl)cc3)n(-c3ccc(Cl)cc3)n2)C1 (stereo unspecified) | 1.7 µM |  |  | 
O=C(NCCCO)c1cc(-c2ccc(Cl)cc2)n(-c2ccc(Cl)cc2)n1 | 12.4 µM |  |  | 
CN(C)CCNC(=O)c1cc(-c2ccc(Cl)cc2)n(-c2ccc(Cl)cc2)n1 | 0.49 µM |  | 5.41 µM | 
Mucosa-associated lymphoid tissue lymphoma translocation protein 1 (Homo sapiens), Q9UDY8 (protein) MSLLGDPLQALPPSAAPTGPLLAPPAGATLNRLREPLLRRLSELLDQAPEGRGWRRLAELAGSRGRLRLSCLDLEQCSLKVLEPEGSPSLCLLKLMGEKGCTVTELSDFLQAMEHTEVLQLLSPPGIKITVNPESKAVLAGQFVKLCCRATGHPFVQYQWFKMNKEIPNGNTSELIFNAVHVKDAGFYVCRVNNNFTFEFSQWSQLDVCDIPESFQRSVDGVSESKLQICVEPTSQKLMPGSTLVLQCVAVGSPIPHYQWFKNELPLTHETKKLYMVPYVDLEHQGTYWCHVYNDRDSQDSKKVEIIIGRTDEAVECTEDELNNLGHPDNKEQTTDQPLAKDKVALLIGNMNYREHPKLKAPLVDVYELTNLLRQLDFKVVSLLDLTEYEMRNAVDEFLLLLDKGVYGLLYYAGHGYENFGNSFMVPVDAPNPYRSENCLCVQNILKLMQEKETGLNVFLLDMCRKRNDYDDTIPILDALKVTANIVFGYATCQGAEAFEIQHSGLANGIFMKFLKDRLLEDKKITVLLDEVAEDMGKCHLTKGKQALEIRSSLSEKRALTDPIQGTEYSAESLVRNLQWAKAHELPESMCLKFDCGVQIQLGFAAEFSNVMIIYTSIVYKPPEIIMCDAYVTDFPLDLDIDPKDANKGTPEETGSYLVSKDLPKHCLYTRLSSLQKLKEHLVFTVCLSYQYSGLEDTVEDKQEVNVGKPLIAKLDMHRGLGRKTCFQTCLMSNGPYQSSAATSGGAGHYHSLQDPFHGVYHSHPGNPSNVTPADSCHCSRTPDAFISSFAHHASCHFSRSNVPVETTDEIPFSFSDRLRISEK |  |  |  | 234 µM
